pIC50: −log10 of the molar value.

Test [1] addresses T1, human MetAP2 enzyme (Homo sapiens, UniProt P50579). In words: MetAP2 enzyme assay, enzyme complexed with manganese ions. The settings on record: MetAP2 Mn pIC50, MetAP2 enzyme complexed with manganese ions; Met-AMC substrate at Km.
Test [2] addresses T1, human MetAP2 enzyme. Nature of the test: MetAP2 enzyme assay, enzyme complexed with cobalt ions. Conditions: MetAP2 Co pIC50, MetAP2 enzyme complexed with cobalt ions; Met-AMC substrate at Km.

T1 sequence (P50579 whole entry): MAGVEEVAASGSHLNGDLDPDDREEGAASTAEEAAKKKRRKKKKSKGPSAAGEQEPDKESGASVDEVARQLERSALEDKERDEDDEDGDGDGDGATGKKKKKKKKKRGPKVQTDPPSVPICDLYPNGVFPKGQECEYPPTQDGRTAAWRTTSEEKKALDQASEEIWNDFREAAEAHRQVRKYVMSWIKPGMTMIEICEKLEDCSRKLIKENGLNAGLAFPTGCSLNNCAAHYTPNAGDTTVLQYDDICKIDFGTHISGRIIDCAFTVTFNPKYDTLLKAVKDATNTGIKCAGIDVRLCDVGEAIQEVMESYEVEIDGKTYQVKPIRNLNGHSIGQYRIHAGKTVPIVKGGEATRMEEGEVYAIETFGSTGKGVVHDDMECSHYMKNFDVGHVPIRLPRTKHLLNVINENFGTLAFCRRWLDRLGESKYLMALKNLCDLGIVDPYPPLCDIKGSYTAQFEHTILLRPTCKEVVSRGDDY

With `FC(F)(F)c1cc(-c2cccc(-c3cc[nH]n3)c2)c2cn[nH]c2c1` [Example 61, 4-(3-(1H-pyrazol-3-yl)phenyl)-6-(trifluoromethyl)-1H-indazole], the negative-log IC50 (pIC50) at human MetAP2 enzyme [1] is 7.40; at human MetAP2 enzyme [2], 6.80.

As to `FC(F)(F)c1cc(-c2ccc(-c3ccn[nH]3)cc2)c2cn[nH]c2c1` [Example 62, 4-(4-(1H-pyrazol-5-yl)phenyl)-6-(trifluoromethyl)-1H-indazole], the negative logarithm of the IC50 (pIC50) against human MetAP2 enzyme [1] was 7.90; against human MetAP2 enzyme [2], 7.00.

`NC(=O)c1cc(-c2cc(C(F)(F)F)cc3[nH]ncc23)ccc1Cl` [Example 63, 2-chloro-5-(6-(trifluoromethyl)-1H-indazol-4-yl)benzamide]: the pIC50 is 7.80 at human MetAP2 enzyme [1] and 7.20 at human MetAP2 enzyme [2].

Take `Cn1cnc2ccc(-c3cc(C(F)(F)F)cc4[nH]ncc34)cc21` [Example 64, 4-(1-methyl-1H-benzo[d]imidazol-6-yl)-6-(trifluoromethyl)-1H-indazole]: the pIC50 is 8.00 against human MetAP2 enzyme [1] and 7.50 on human MetAP2 enzyme [2].

On to `Fc1c(-c2cc(C(F)(F)F)cc3[nH]ncc23)ccnc1N1CCOCC1` [Example 65, 4-(3-fluoro-4-(6-(trifluoromethyl)-1H-indazol-4-yl)pyridin-2-yl)morpholine], for which the results for the negative logarithm of the IC50 (pIC50) against human MetAP2 enzyme [1] and on human MetAP2 enzyme [2] were 7.90 and 7.80, respectively.

In the case of `Fc1cnc2[nH]ccc2c1-c1cc(C(F)(F)F)cc2[nH]ncc12` [Example 66, 4-(5-fluoro-1H-pyrrolo[2,3-b]pyridin-4-yl)-6-(trifluoromethyl)-1H-indazole], the negative-log IC50 (pIC50) at human MetAP2 enzyme [1] was 7.80; on human MetAP2 enzyme [2], 7.10.

Take `FC(F)(F)c1cc(-c2cccc(-n3cccn3)c2)c2cn[nH]c2c1` [Example 69, 4-(3-(1H-pyrazol-1-yl)phenyl)-6-(trifluoromethyl)-1H-indazole]: the pIC50 against human MetAP2 enzyme [1] is 8.20; against human MetAP2 enzyme [2], 6.80.

As for `FC(F)(F)c1cc(-c2cnn(Cc3ccccn3)c2)c2cn[nH]c2c1` [Example 72, 4-(1-(pyridin-2-ylmethyl)-1H-pyrazol-4-yl)-6-(trifluoromethyl)-1H-indazole], the results for the pIC50 on human MetAP2 enzyme [1] and at human MetAP2 enzyme [2] were 8.60 and 7.60, respectively.

For `CC(C)(C)C(=O)Nc1ncccc1-c1cc(C(F)(F)F)cc2[nH]ncc12` [Example 73, N-(3-(6-(trifluoromethyl)-1H-indazol-4-yl)pyridin-2-yl)pivalamide], the pIC50 against human MetAP2 enzyme [1] is 7.10; against human MetAP2 enzyme [2] it was 6.70.

Take `FC(F)(F)c1cc(-c2cnn(CCN3CCOCC3)c2)c2cn[nH]c2c1` [Example 74, 4-(2-(4-(6-(trifluoromethyl)-1H-indazol-4-yl)-1H-pyrazol-1-yl)ethyl)morpholine]: the pIC50 is 8.40 at human MetAP2 enzyme [1] and 7.30 against human MetAP2 enzyme [2].

Take `N#Cc1cc(F)ccc1-c1cc(C(F)(F)F)cc2[nH]ncc12` [Example 75, 5-fluoro-2-(6-(trifluoromethyl)-1H-indazol-4-yl)benzonitrile]: the negative-log IC50 (pIC50) at human MetAP2 enzyme [1] was 8.10; at human MetAP2 enzyme [2], 6.80.

With `FC(F)(F)c1cc(-c2cccc3cc[nH]c23)c2cn[nH]c2c1` [Example 76, 4-(1H-indol-7-yl)-6-(trifluoromethyl)-1H-indazole], the pIC50 on human MetAP2 enzyme [1] was 7.40; on human MetAP2 enzyme [2], 6.40.

`Cn1ccc2c(-c3cc(C(F)(F)F)cc4[nH]ncc34)cccc21` [Example 77, 4-(1-methyl-1H-indol-4-yl)-6-(trifluoromethyl)-1H-indazole]: the results for the pIC50 on human MetAP2 enzyme [1] and at human MetAP2 enzyme [2] were 8.20 and 7.10, respectively.

As for `Nc1ncccc1-c1cc(C(F)(F)F)cc2[nH]ncc12` [Example 78, 3-(6-(trifluoromethyl)-1H-indazol-4-yl)pyridin-2-amine], the values for the pIC50 on human MetAP2 enzyme [1] and at human MetAP2 enzyme [2] were 8.30 and 7.00, respectively.

With `Cc1c(-c2cc(C(F)(F)F)cc3[nH]ncc23)cnn1C` [Example 79, 4-(1,5-dimethyl-1H-pyrazol-4-yl)-6-(trifluoromethyl)-1H-indazole], the pIC50 is 8.00 at human MetAP2 enzyme [1] and 7.60 at human MetAP2 enzyme [2].

For `Cc1noc(C)c1-c1cc(C(F)(F)F)cc2[nH]ncc12` [Example 80, 3,5-dimethyl-4-(6-(trifluoromethyl)-1H-indazol-4-yl)isoxazole], the pIC50 on human MetAP2 enzyme [1] was 8.10; on human MetAP2 enzyme [2] it was 7.10.

For the compound `FC(F)(F)c1cc(-c2cccc3[nH]ccc23)c2cn[nH]c2c1` [Example 81, 4-(1H-indol-4-yl)-6-(trifluoromethyl)-1H-indazole], the negative-log IC50 (pIC50) on human MetAP2 enzyme [1] is 7.80; at human MetAP2 enzyme [2], 7.40.

Take `Cn1cc(-c2cc(C(F)(F)F)cc3[nH]ncc23)c(=O)n(C)c1=O` [Example 82, 1,3-dimethyl-5-(6-(trifluoromethyl)-1H-indazol-4-yl)pyrimidine-2,4(1H,3H)-dione]: the negative logarithm of the IC50 (pIC50) was 8.00 at human MetAP2 enzyme [1] and 6.30 on human MetAP2 enzyme [2].

Regarding `Cc1n[nH]c(C)c1-c1cc(C(F)(F)F)cc2[nH]ncc12` [Example 83, 4-(3,5-dimethyl-1H-pyrazol-4-yl)-6-(trifluoromethyl)-1H-indazole], the pIC50 was 7.70 on human MetAP2 enzyme [1] and 7.40 at human MetAP2 enzyme [2].

Regarding `CN1CCN(C(=O)c2cccc(-c3cc(C(F)(F)F)cc4[nH]ncc34)c2)CC1` [Example 84, (4-methylpiperazin-1-yl)(3-(6-(trifluoromethyl)-1H-indazol-4-yl)phenyl)methanone], the pIC50 at human MetAP2 enzyme [1] was 8.50; at human MetAP2 enzyme [2], 7.70.

Regarding `O=C(c1cccc(-c2cc(C(F)(F)F)cc3[nH]ncc23)c1)N1CCCC1` [Example 85, pyrrolidin-1-yl(3-(6-(trifluoromethyl)-1H-indazol-4-yl)phenyl)methanone], the pIC50 on human MetAP2 enzyme [1] is 8.20; against human MetAP2 enzyme [2], 7.10.

As to `COc1ccc(OC)c(-c2cc(C(F)(F)F)cc3[nH]ncc23)c1` [Example 86, 4-(2,5-dimethoxyphenyl)-6-(trifluoromethyl)-1H-indazole], the pIC50 on human MetAP2 enzyme [1] was 8.50; at human MetAP2 enzyme [2] it was 7.80.

As to `COc1cccc(-c2cc(C(F)(F)F)cc3[nH]ncc23)c1OC` [Example 87, 4-(2,3-dimethoxyphenyl)-6-(trifluoromethyl)-1H-indazole], the pIC50 against human MetAP2 enzyme [1] is 8.10; on human MetAP2 enzyme [2], 6.90.

Consider `CCNC(=O)c1cccc(-c2cc(C(F)(F)F)cc3[nH]ncc23)c1` [Example 88, N-ethyl-3-(6-(trifluoromethyl)-1H-indazol-4-yl)benzamide], for which the negative-log IC50 (pIC50) is 8.40 against human MetAP2 enzyme [1] and 7.10 at human MetAP2 enzyme [2].

As to `FC(F)(F)c1cc(-c2ccc(N3CCOCC3)nc2)c2cn[nH]c2c1` [Example 89, 4-(5-(6-(trifluoromethyl)-1H-indazol-4-yl)pyridin-2-yl)morpholine], the pIC50 is 8.40 at human MetAP2 enzyme [1] and 7.70 against human MetAP2 enzyme [2].

With `N#CCc1cccc(-c2cc(C(F)(F)F)cc3[nH]ncc23)c1` [Example 90, 2-(3-(6-(trifluoromethyl)-1H-indazol-4-yl)phenyl)acetonitrile], the pIC50 on human MetAP2 enzyme [1] was 8.50; against human MetAP2 enzyme [2] it was 7.50.

With `COc1cccc(-c2cc(C(F)(F)F)cc3[nH]ncc23)n1` [Example 91, 4-(6-methoxypyridin-2-yl)-6-(trifluoromethyl)-1H-indazole], the negative logarithm of the IC50 (pIC50) against human MetAP2 enzyme [1] was 8.20; at human MetAP2 enzyme [2] it was 6.70.

`CNC(=O)c1ccc(-c2cc(C(F)(F)F)cc3[nH]ncc23)cc1F` [Example 92, 2-fluoro-N-methyl-4-(6-(trifluoromethyl)-1H-indazol-4-yl)benzamide]: the pIC50 at human MetAP2 enzyme [1] was 8.40; on human MetAP2 enzyme [2], 7.30.

On to `N#CCOc1ccccc1-c1cc(C(F)(F)F)cc2[nH]ncc12` [Example 93, 2-(2-(6-(trifluoromethyl)-1H-indazol-4-yl)phenoxy)acetonitrile], for which the negative logarithm of the IC50 (pIC50) is 8.00 against human MetAP2 enzyme [1] and 7.30 at human MetAP2 enzyme [2].

For `FC(F)(F)c1cc(-c2cnc(N3CCOCC3)cn2)c2cn[nH]c2c1` [Example 94, 4-(5-(6-(trifluoromethyl)-1H-indazol-4-yl)pyrazin-2-yl)morpholine], the results for the negative logarithm of the IC50 (pIC50) against human MetAP2 enzyme [1] and against human MetAP2 enzyme [2] were 8.50 and 7.20, respectively.

On to `CS(=O)(=O)NCc1ccc(-c2cc(C(F)(F)F)cc3[nH]ncc23)cc1` [Example 95, N-(4-(6-(trifluoromethyl)-1H-indazol-4-yl)benzyl)methanesulfonamide], for which the pIC50 on human MetAP2 enzyme [1] was 8.50; on human MetAP2 enzyme [2] it was 7.70.

Consider `FC(F)(F)c1cc(-c2cnn(Cc3cccnc3)c2)c2cn[nH]c2c1` [Example 96, 4-(1-(pyridin-3-ylmethyl)-1H-pyrazol-4-yl)-6-(trifluoromethyl)-1H-indazole], for which the pIC50 is 8.30 at human MetAP2 enzyme [1] and 7.40 against human MetAP2 enzyme [2].

Turning to `CNC(=O)c1ccc(-c2cc(C(F)(F)F)cc3[nH]ncc23)cn1` [Example 97, N-methyl-5-(6-(trifluoromethyl)-1H-indazol-4-yl)picolinamide], the pIC50 on human MetAP2 enzyme [1] is 8.60; on human MetAP2 enzyme [2], 7.30.

`FC(F)(F)c1cc(-c2cccnc2OC2CCCC2)c2cn[nH]c2c1` [Example 98, 4-(2-(cyclopentyloxy)pyridin-3-yl)-6-(trifluoromethyl)-1H-indazole]: the pIC50 is 7.80 against human MetAP2 enzyme [1] and 7.40 against human MetAP2 enzyme [2].

Regarding `FC(F)(F)c1cc(-c2cccnc2OCc2ccccc2)c2cn[nH]c2c1` [Example 99, 4-(2-(benzyloxy)pyridin-3-yl)-6-(trifluoromethyl)-1H-indazole], the pIC50 on human MetAP2 enzyme [1] is 7.40; against human MetAP2 enzyme [2], 6.20.

With `FC(F)(F)COc1ncccc1-c1cc(C(F)(F)F)cc2[nH]ncc12` [Example 100, 4-(2-(2,2,2-trifluoroethoxy)pyridin-3-yl)-6-(trifluoromethyl)-1H-indazole], the values for the pIC50 against human MetAP2 enzyme [1] and at human MetAP2 enzyme [2] were 7.80 and 6.70, respectively.

With `FC(F)(F)c1cc(-c2cccc3ncccc23)c2cn[nH]c2c1` [Example 101, 5-(6-(trifluoromethyl)-1H-indazol-4-yl)quinoline], the pIC50 against human MetAP2 enzyme [1] was 8.00; on human MetAP2 enzyme [2], 7.50.

With `CNC(=O)c1ccc(F)cc1-c1cc(C(F)(F)F)cc2[nH]ncc12` [Example 102, 4-fluoro-N-methyl-2-(6-(trifluoromethyl)-1H-indazol-4-yl)benzamide], the values for the negative-log IC50 (pIC50) at human MetAP2 enzyme [1] and against human MetAP2 enzyme [2] were 7.10 and 6.20, respectively.
